How the values were obtained:
Xenopus laevis tadpoles = assay: Tadpole loss of righting (LRR) and swimming (LSR) reflexes; type: in vivo; settings: 3 h equilibration at room temperature; for EC50: Xenopus laevis, 3 h, read-out: LSR EC50 (loss of swimming response)
Method: Tadpole LRR was measured as described previously. (See, Wittmer, L. L., et al., Enantioselectivity of steroid-induced γ-aminobutyric acidA receptor modulation and anesthesia, Mol. Phar., 1996, 50:1581-1586). Briefly, groups of 10 early prelimb-bud stage Xenopus laevis tadpoles (Nasco, Fort Atkinson, Wis.) were placed in 100 mL of oxygenated Ringer's stock solution containing various concentrations of compound. Compounds were added from a 10 mM DMSO stock (final concentration of DMSO in test solutions ≦0.1%). After equilibrating at room temperature for 3 h, tadpoles were evaluated using the LRR and LSR behavioral endpoints. LRR was defined as failure of the tadpole to right itself within 5 sec after being flipped by a smooth glass rod. LSR was defined as failure of the tadpole to swim when touched by a smooth glass rod. In general, the tadpoles regained their righting and swimming reflexes when placed in fresh oxygenated Ringer's solution. Control beakers containing up to 0.6% DMSO produced no LRR or LSR in tadpoles.
Tadpole LRR and LSR concentration-response curves were fit using Sigma Plot version 3.0 to the Hill equation f=Rmax/{1+([conc]/EC50)^n}
where Rmax is the maximum effect, [conc] is the steroid concentration, EC50 is the half-maximal effective concentration, and n is the Hill coefficient.

[1] = biological target: T1, rat α1β2γ2 GABAA Receptor (Rattus norvegicus, UniProt P18508+P62813+P63138, INS375LLRMFSFK); assay: Xenopus oocyte two-electrode voltage-clamp electrophysiology; type: cell-based; settings: for Oocyte electrophysiology, ratio of currents in presence/absence of compound, 0.1 μM: 0.1 μM compound co-applied with 2 μM GABA; for Oocyte electrophysiology, ratio of currents in presence/absence of compound, 0.1 μM / Oocyte electrophysiology, ratio of currents in presence/absence of compound, 1 μM / Oocyte electrophysiology, ratio of currents in presence/absence of compound, 10 μM: −70 mV; for Oocyte electrophysiology, ratio of currents in presence/absence of compound, 1 μM: 1 μM compound co-applied with 2 μM GABA; for Gating (10 μM), ratio of compound only current/2 μM GABA current: direct current gated by 10 μM compound in the absence of GABA; for Oocyte electrophysiology, ratio of currents in presence/absence of compound, 10 μM: 10 μM compound co-applied with 2 μM GABA
T1 construct: from linearized pBluescript vectors containing receptor coding regions; expressed in transfected cells; host or cells: Xenopus laevis oocytes injected with in vitro transcribed capped mRNA
Method: Stage V-VI oocytes were harvested from sexually mature female Xenopus laevis (Xenopus One, Northland, Mich.) under 0.1% tricaine (3-aminobenzoic acid ethyl ester) anesthesia. Oocytes were defolliculated by shaking for 20 min at 37° C. in collagenase (2 mg/ml) dissolved in calcium-free solution containing (in mM): 96 NaCl, 2 KCl, 1 MgCl2, and 5 HEPES at pH 7.4. Capped mRNA, encoding rat GABAA receptor α1, β2 and γ2L subunits was transcribed in vitro using the mMESSAGE mMachine Kit (Ambion, Austin, Tex.) from linearized pBluescript vectors containing receptor coding regions. Subunit transcripts were injected in equal parts (20-40 ng total RNA) 8-24 hours following defolliculation. Oocytes were incubated up to 5 days at 18° C. in ND96 medium containing (in mM): 96 NaCl, 1 KCl, 1 MgCl2, 2 CaCl2 and 5 HEPES at pH 7.4, supplemented with pyruvate (5 mM), penicillin (100 U/ml), streptomycin (100 μg/ml) and gentamycin (50 μg/ml). The cDNAs for the rat GABAA-receptor subunits were originally provided by A. Tobin, University of California, Los Angels (α1), P. Malherbe, Hoffman-La Roche, Switzerland (β2), C. Fraser, National Institute on Alcohol Abuse and Alcoholism (γ2L).
Two-electrode voltage-clamp experiments were performed with a Warner OC725 amplifier 2-5 days following RNA injection. The extracellular recording solution was ND96 medium with no supplements. Intracellular recording pipettes were filled with 3 M KCl and had open tip resistances of ˜1 MΩ. Drugs were applied from a common tip via a gravity-driven multibarrel drug-delivery system. Steroids were simultaneously co-applied with GABA. Cells were clamped at −70 mV for all experiments, and peak current during 20 s drug applications was measured. Data acquisition and analysis were performed with pCLAMP software (Axon Instruments, California). Statistical differences were determined using a two-tailed Student's t-test.
The GABA concentration used for the control response was 2 μM. Each compound was evaluated on at least four different oocytes at the concentrations indicated, and the results reported are the ratio of the currents measured in the presence/absence of added compound. (G) represents direct current gated by 10 μM compound in the absence of GABA, and this current is reported as the ratio of compound only current/2 μM GABA current. Error limits are calculated as standard error of the means.

[2] = biological target: GABAA receptor ([35S]-TBPS binding site, rat brain cortical membranes); assay: Displacement of [35S]-TBPS binding, rat brain cortical membranes; settings: 5 μM GABA, 2 nM [35S]-TBPS; ± standard error of the means
Method: Rat brain cortical membranes were prepared with minor modifications of the method previously reported. (Hawkinson, J. E., et al., Correlation of Neuroactive Steroid Modulation of [^35S]t-Butylbicyclophosophorothionate and [^3H]Flunitrazepam Binding and γ-Aminobutyric AcidA Receptor Function, Mol. Pharmacol., 1994, 46, 977-985). Briefly, frozen rat cerebral cortices (Pel-freez, Rogers, Ak.) were thawed and homogenized in 10 volumes of ice-cold 0.32 M sucrose using a glass/Teflon pestle. The homogenate was centrifuged at 1500×g for 10 min at 4° C. The resultant supernatant was centrifuged at 10,000×g for 30 min at 4° C. The pellet (P2) from this centrifugation was resuspended in 200 mM NaCl, 50 mM potassium phosphate buffer, pH 7.4, and centrifuged at 10,000×g for 20 min at 4° C. This washing procedure was done a total of three times, and then pellets were resuspended in buffer (˜4 mL/brain) using a glass/Teflon pestle. The membrane suspension was aliquoted, frozen in liquid nitrogen, and stored at −80° C. prior to use.
[^35S]-TBPS Binding assays were done according to the procedure described previously (Hawkinson, J. E., et al., Correlation of Neuroactive Steroid Modulation of [^35S]t-Butylbicyclophosophorothionate and [^3H]Flunitrazepam Binding and γ-Aminobutyric AcidA Receptor Function, Mol. Pharmacol., 1994, 46, 977-985) with modifications. Briefly, aliquots of membrane solution (0.5 mg/mL final protein concentration in assay) were incubated with 5 μM GABA, 2 nM [^35S]-TBPS (45-120 Ci/mmol), and 5 μL aliquots of steroid in DMSO solution (final assay concentrations ranged from 1 nM to 10 μM), and brought to a final volume of 1 mL with 200 mM NaCl, 50 mM potassium phosphate buffer, pH 7.4. […] Assay tubes were incubated for 2 hr at room temperature. A Brandel (Gaithersburg, Md.) cell harvester was used for filtration of the assay tubes through Whatman/GF/C glass filter paper. Filter paper was rinsed with 4 mL of ice-cold buffer three times. Radioactivity bound to the filters was read by liquid scintillation counter and data was fit using Sigma Plot version 3.0 to the Hill equation i. f=Rmax/{1+([conc]/IC50)^n}
Where Rmax is the maximal effect, [conc] is steroid concentration, IC50 is the half-maximal inhibitor concentration and n is the Hill coefficient. Each data point was determined in triplicate and 2-3 full concentration-response curves were generated for each steroid.

T1 sequence (P62813 28-455, stated change not applied): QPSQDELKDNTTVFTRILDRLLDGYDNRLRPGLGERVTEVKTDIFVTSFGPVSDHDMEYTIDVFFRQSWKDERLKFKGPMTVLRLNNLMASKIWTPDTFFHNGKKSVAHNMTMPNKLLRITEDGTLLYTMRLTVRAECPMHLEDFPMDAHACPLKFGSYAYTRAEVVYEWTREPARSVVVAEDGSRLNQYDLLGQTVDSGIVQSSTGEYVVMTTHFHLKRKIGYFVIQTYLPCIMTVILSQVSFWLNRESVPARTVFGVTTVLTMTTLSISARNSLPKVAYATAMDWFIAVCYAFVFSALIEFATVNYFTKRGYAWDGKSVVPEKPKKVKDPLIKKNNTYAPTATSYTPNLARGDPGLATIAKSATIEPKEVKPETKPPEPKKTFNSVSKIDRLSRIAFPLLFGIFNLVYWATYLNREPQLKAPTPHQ
T1 sequence (P63138 26-474, stated change not applied): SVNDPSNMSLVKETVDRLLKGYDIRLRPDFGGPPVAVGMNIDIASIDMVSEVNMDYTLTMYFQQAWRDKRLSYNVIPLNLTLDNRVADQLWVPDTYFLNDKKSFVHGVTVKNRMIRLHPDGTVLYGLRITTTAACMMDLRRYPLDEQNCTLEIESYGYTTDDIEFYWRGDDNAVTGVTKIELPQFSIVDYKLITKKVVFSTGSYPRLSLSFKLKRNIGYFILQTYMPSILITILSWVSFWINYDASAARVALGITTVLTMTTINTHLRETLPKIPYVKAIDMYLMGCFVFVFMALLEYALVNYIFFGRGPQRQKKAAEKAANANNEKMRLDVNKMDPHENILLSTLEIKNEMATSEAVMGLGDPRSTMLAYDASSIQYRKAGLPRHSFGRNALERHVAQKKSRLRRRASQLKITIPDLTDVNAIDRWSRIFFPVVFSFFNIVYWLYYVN
T1 sequence (P18508 with tags, fused parts or gaps INS375LLRMFSFK): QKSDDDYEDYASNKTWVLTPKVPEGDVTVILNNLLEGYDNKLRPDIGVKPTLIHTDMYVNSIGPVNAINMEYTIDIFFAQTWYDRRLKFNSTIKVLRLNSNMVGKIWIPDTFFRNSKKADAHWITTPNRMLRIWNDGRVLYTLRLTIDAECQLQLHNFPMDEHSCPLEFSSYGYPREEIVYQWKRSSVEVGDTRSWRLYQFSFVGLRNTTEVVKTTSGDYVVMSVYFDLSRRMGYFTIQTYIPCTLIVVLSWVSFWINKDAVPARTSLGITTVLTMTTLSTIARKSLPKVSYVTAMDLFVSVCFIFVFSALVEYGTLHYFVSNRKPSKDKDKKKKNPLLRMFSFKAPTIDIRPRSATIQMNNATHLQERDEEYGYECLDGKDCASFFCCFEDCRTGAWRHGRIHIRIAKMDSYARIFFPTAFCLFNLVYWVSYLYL

Structure (SMILES)	LRR ED50 (loss of righting response) (Xenopus laevis tadpoles)	EC50 (Xenopus laevis tadpoles)	Reversibility of steroid effect on GABA current (FIG. 1A) ([1]; 500 nM compound, 2 μM GABA, GABA recovery panel)	melting point	IC50 [2]	Oocyte electrophysiology, ratio of currents in presence/absence of compound, 0.1 μM [1]	Oocyte electrophysiology, ratio of currents in presence/absence of compound, 1 μM [1]	Gating (10 μM), ratio of compound only current/2 μM GABA current [1]	Oocyte electrophysiology, ratio of currents in presence/absence of compound, 10 μM [1]	LSR EC50 (loss of swimming response) (Xenopus laevis tadpoles)
CC(=O)[C@H]1CC[C@H]2[C@@H]3CC[C@H]4C[C@H](O)CC[C@]4(C)[C@H]3CC[C@]12C [Compound 1a, (3α,5α)-3-Hydroxypregnan-20-one, reference compound]	0.42 ± 0.04 µM	5.5 ± 0.48 µM	readily reversible							
CC(=O)[C@H]1CC[C@H]2[C@@H]3CC[C@@H]4C[C@H](O)CC[C@]4(C)[C@H]3CC[C@]12C [Compound 1b, (3α,5β)-3-Hydroxypregnan-20-one, reference compound]	0.063 ± 0.003 µM	0.3 µM								
C[C@]12CC[C@@H](O)C[C@@H]1CCC1C3CC[C@@H]4C(=O)CCC[C@]34CCC12 (stereo partly drawn) [Compound 2a, (3α,5α)-3-Hydroxy-13,24-cyclo-18,21-dinorcholan-20-one]	1.36 ± 0.20 µM	5.45 ± 0.07 µM		200 to 202 °C	0.514 ± 0.064 µM	1.01 ± 0.03	1.44 ± 0.03	0 ± 0.1		
C[C@]12CC[C@@H](O)C[C@H]1CCC1C3CC[C@@H]4C(=O)CCC[C@]34CCC12 (stereo partly drawn) [Compound 2b, (3α,5β)-3-Hydroxy-13,24-cyclo-18,21-dinorcholan-20-one]	0.94 ± 0.55 µM	5.48 ± 0.08 µM		220 to 222 °C	1.78 µM	0.93 ± 0.06	1.12 ± 0.14	−0.25 ± 0.21	1.51 ± 0.13	
C[C@]12CC[C@@H](O)C[C@@H]1CCC1C3CC[C@@H]4CC(=O)CC[C@]34CCC12 (stereo partly drawn) [Compound 3a, (3α,5α)-3-Hydroxy-13,24-cyclo-18,21-dinorcholan-22-one]	2.37 ± 0.47 µM			195 to 197 °C	1.44 µM	1.30 ± 0.15	1.61 ± 0.22	0.06 ± 0.06	2.93 ± 0.68	None @ 10
CC12CCC(O)CC1CCC1C2CCC23CCC(=O)CC2CCC13 (stereo not drawn) [Compound 3b, (3α,5β)-3-Hydroxy-13,24-cyclo-18,21-dinorcholan-22-one]	2.47 ± 0.53 µM	9.43 ± 0.06 µM		175 to 177 °C	3.23 µM	0.97 ± 0.01	1.11 ± 0.14	−0.10 ± 0.06	2.65 ± 0.33	
C[C@]12CC[C@@H](O)C[C@@H]1CCC1C3CCC4CCC(=O)C[C@@]43CCC12 (stereo partly drawn) [Compound 4a, (3α,5α)-3-Hydroxy-13,24-cyclo-18,21-dinorcholan-23-one]	1.12 ± 0.36 µM	3.58 ± 1.08 µM		185 to 186 °C	0.334 ± 0.017 µM	1.39 ± 0.38	1.64 ± 0.15	0.32 ± 0.01	6.49 ± 0.59	
C[C@]12CC[C@@H](O)C[C@H]1CCC1C3CCC4CCC(=O)C[C@@]43CCC12 (stereo partly drawn) [Compound 4b, (3α,5β)-3-Hydroxy-13,24-cyclo-18,21-dinorcholan-23-one]	1.44 ± 0.02 µM	3.55 ± 1.15 µM		197 to 198 °C	0.899 ± 0.15 µM	0.97 ± 0.03	1.03 ± 0.08	0.01 ± 0.01	3.17 ± 0.42	
C=C1CC[C@]23CCC4C(CC[C@H]5C[C@H](O)CC[C@]45C)C2CC[C@@H]3C1 (stereo partly drawn) [Compound 53, (3α,5α)-22-Methylene-13,24-cyclo-18,21-dinorcholan-3-ol]				187 to 188 °C	107 ± 29.6 µM				1.05 ± 0.04	

From patent US7781421B2, “Neuroactive 13, 24-cyclo-18, 21-dinorcholanes and structurally related pentacyclic steriods” (Washington University, priority 2003, dated 2010)
